According to the NIST ThermoML archive (doi:10.1016/j.fluid.2006.12.011):
Numbers after ± are expanded uncertainties.

Experiments:
[1] = Liquid, Vibrating tube method
[2] = xn = mol fraction of the nth substance listed; conditions: Liquid, Vibrating tube method, x2 = 0

C1CC[C@H]2CCCC[C@@H]2C1 [trans-decahydronaphthalene]
mass density [kg/m3], [1]
Conditions | 303.15 K | 323.15 K | 343.15 K
100 kPa | 862.1 ± 1 | 847.1 ± 1 | 832 ± 1
5000 kPa | 865.4 ± 1 | 850.9 ± 1 | 836.2 ± 1
10000 kPa | 868.7 ± 1 | 854.4 ± 1 | 840.1 ± 1
15000 kPa | 871.6 ± 1 | 857.8 ± 1 | 843.9 ± 1
20000 kPa | 874.6 ± 1 | 861 ± 1 | 847.4 ± 1.1
25000 kPa | 877.6 ± 1.1 | 864.1 ± 1.1 | 850.8 ± 1.1
30000 kPa | 880.3 ± 1.1 | 867.1 ± 1.1 | 854.1 ± 1.1
35000 kPa | 882.9 ± 1.1 | 870 ± 1.1 | 857.2 ± 1.1
40000 kPa | 885.6 ± 1.1 | 872.8 ± 1.1 | 860.3 ± 1.1
45000 kPa | 888.2 ± 1.1 | 875.6 ± 1.1 | 863.2 ± 1.1
50000 kPa | 890.6 ± 1.1 | 878.3 ± 1.1 | 866.1 ± 1.1
55000 kPa | 893 ± 1.1 | 880.8 ± 1.1 | 868.8 ± 1.1
60000 kPa | 895.3 ± 1.1 | 883.4 ± 1.1 | 871.5 ± 1.1
65000 kPa | 897.6 ± 1.1 | 885.8 ± 1.1 | 874.2 ± 1.1

C1CC[C@H]2CCCC[C@H]2C1 [cis-decahydronaphthalene]
mass density [kg/m3], [1]
Conditions | 303.15 K | 323.15 K | 343.15 K
100 kPa | 888.5 ± 1.2 | 873.2 ± 1.2 | 857.8 ± 1.2
5000 kPa | 891.4 ± 1.2 | 876.5 ± 1.2 | 861.5 ± 1.2
10000 kPa | 894.4 ± 1.2 | 879.8 ± 1.2 | 865.1 ± 1.2
15000 kPa | 897.3 ± 1.2 | 883 ± 1.2 | 868.6 ± 1.2
20000 kPa | 899.9 ± 1.2 | 886 ± 1.2 | 871.9 ± 1.2
25000 kPa | 902.8 ± 1.3 | 889 ± 1.3 | 875.1 ± 1.3
30000 kPa | 905.5 ± 1.3 | 891.8 ± 1.3 | 878.3 ± 1.3
35000 kPa | 908 ± 1.3 | 894.6 ± 1.3 | 881.2 ± 1.3
40000 kPa | 910.6 ± 1.3 | 897.3 ± 1.3 | 884.1 ± 1.3
45000 kPa | 913 ± 1.3 | 899.9 ± 1.3 | 887 ± 1.3
50000 kPa | 915.3 ± 1.3 | 902.4 ± 1.3 | 889.7 ± 1.3
55000 kPa | 917.6 ± 1.3 | 904.8 ± 1.3 | 892.3 ± 1.3
60000 kPa | 919.9 ± 1.3 | 907.3 ± 1.3 | 894.9 ± 1.3
65000 kPa | 922.1 ± 1.3 | 909.6 ± 1.3 | 897.4 ± 1.3

C1CC[C@H]2CCCC[C@@H]2C1 [trans-decahydronaphthalene] + C1CC[C@H]2CCCC[C@H]2C1
mass density [kg/m3], [2]
Conditions | 303.15 K | 323.15 K | 343.15 K
100 kPa | 862.1 ± 1 | 847.1 ± 1 | 832 ± 1
5000 kPa | 865.4 ± 1 | 850.9 ± 1 | 836.2 ± 1
10000 kPa | 868.7 ± 1 | 854.4 ± 1 | 840.1 ± 1
15000 kPa | 871.6 ± 1 | 857.8 ± 1 | 843.9 ± 1
20000 kPa | 874.6 ± 1 | 861 ± 1 | 847.4 ± 1.1
25000 kPa | 877.6 ± 1.1 | 864.1 ± 1.1 | 850.8 ± 1.1
30000 kPa | 880.3 ± 1.1 | 867.1 ± 1.1 | 854.1 ± 1.1
35000 kPa | 882.9 ± 1.1 | 870 ± 1.1 | 857.2 ± 1.1
40000 kPa | 885.6 ± 1.1 | 872.8 ± 1.1 | 860.3 ± 1.1
45000 kPa | 888.2 ± 1.1 | 875.6 ± 1.1 | 863.2 ± 1.1
50000 kPa | 890.6 ± 1.1 | 878.3 ± 1.1 | 866.1 ± 1.1
55000 kPa | 893 ± 1.1 | 880.8 ± 1.1 | 868.8 ± 1.1
60000 kPa | 895.3 ± 1.1 | 883.4 ± 1.1 | 871.5 ± 1.1
65000 kPa | 897.6 ± 1.1 | 885.8 ± 1.1 | 874.2 ± 1.1
